Reference: paper PMC10439952, “JT002, a small molecule inhibitor of the NLRP3 inflammasome for the treatment of autoinflammatory disorders” (Scientific Reports, 2023)
Read-outs that look alike come from different tables or passages of the source.

Experiments:
Format in all cases: cell-based
TNFα production = TNFα production in human PBMCs stimulated by LPS + ATP; conditions: Human PBMC
Protocol: (§1) Inflammasome activation and whole blood assays were essentially carried out as described earlier. Details can be found in the supplementary information section accompanying this publication. A protocol for blood draws from healthy volunteers and use of the blood in preclinical assays was approved by Western Institutional Review Board, Inc (Puyallup, WA, USA). Informed consent was obtained from each donor prior to the first blood draw.
(§2) Cell viability was determined by addition of an equal volume of CellTiter-Glo® 2.0 reagent (Promega) to the remaining cells/supernatant in each well. Intracellular Caspase-1 activity was measured using the Caspase-Glo® assay (Promega) according to the manufacturer’s instructions. The biochemical capsase-1 assay was conducted at Reaction Biology Corporation (Malvern, USA). Human IL-1β, IL-1α, and TNFα and mouse IL-1β were measured in cell culture supernatants using homogeneous time resolved fluorescence assay kits (HTRF, Cisbio, Codolet, France). Human IL-18 was measured in cell culture supernatants using an ELISA kit (R&D Systems, Minneapolis, MN, USA). Plasma IL-1β concentrations were determined by Quantikine® ELISA (R&D Systems, Minneapolis, MN).
(§3) 4H). MS: m/z 433.1 (M+H+). […]

NLRP3 inflammasome [1] = molecular target: T1, NLRP3 inflammasome (Rattus norvegicus, UniProt D4A523); assay: Inhibition of IL-1β production in rat PBMCs stimulated by LPS + nigericin; conditions: Rat PBMC, read-out: Geo Av IC50, IL-1β
T1 construct: host or cells: rat PBMCs
Description: as §1
(§4) 4H). MS: m/z 433.1 (M+H+).
(§5) Inflammasome activation.PBMCs (iXCells Biotechnologies, San Diego, USA) were thawed the day before the assay and seeded in complete medium (RPMI 1640 medium with GlutaMAX, supplemented with an additional 2.5 g/L D-glucose, 10% Fet al Bovine Serum, 100 mM Sodium Pyruvate, 1% Penicillin/Streptomycin, 10 mM HEPES and 0.05 mM β -mercaptoethanol) in polystyrene V-bottom 96-well plates at 5x10^4 cells per well and incubated overnight at 37°C with 5% CO 2. […]
(§6) flagellin, prepared in Opt iMEM and combined with Lipofectamine 2000. […] After priming Nlrp3 -/- mBMDMs with 100 ng/mL of LPS for 3- 5 h, cells were exposed to 100 ng/mL L18- MDP and incubated overnight.At the end of the incubation period of the assays above, plates were briefly centri fuged and hal f of the cell culture supern atant remo ved and either analysed i mmediately or stored at - 80°C for subs equent cytokine […]

NLRP3 inflammasome [2] = molecular target: NLRP3 inflammasome (Homo sapiens, UniProt Q96P20); assay: Inhibition of IL-1β, IL-18 and IL-1α production in human PBMCs stimulated by LPS + ATP; parameters: host or cells: human PBMCs; fresh heparinised human whole blood from healthy volunteers; conditions: Human PBMC
Protocol: as §1, §2, §4, §5, §6

NLRP3 inflammasome [3] = molecular target: NLRP3 inflammasome (Mus musculus, UniProt Q8R4B8); assay: Inhibition of non-canonical NLRP3 pathway IL-1β production in mouse BMDMs (Pam3CSK4 + transfected LPS); parameters: host or cells: mouse PBMCs; mouse bone-marrow derived macrophages; mouse whole blood (C57BL/6 in the ex vivo study); conditions: Mouse BMDM, read-out: Geo Av IC50, IL-1β
Protocol: as §1, §2, §3

Sequence of NLRP3 inflammasome (Homo sapiens, UniProt Q96P20) (Q96P20 whole entry): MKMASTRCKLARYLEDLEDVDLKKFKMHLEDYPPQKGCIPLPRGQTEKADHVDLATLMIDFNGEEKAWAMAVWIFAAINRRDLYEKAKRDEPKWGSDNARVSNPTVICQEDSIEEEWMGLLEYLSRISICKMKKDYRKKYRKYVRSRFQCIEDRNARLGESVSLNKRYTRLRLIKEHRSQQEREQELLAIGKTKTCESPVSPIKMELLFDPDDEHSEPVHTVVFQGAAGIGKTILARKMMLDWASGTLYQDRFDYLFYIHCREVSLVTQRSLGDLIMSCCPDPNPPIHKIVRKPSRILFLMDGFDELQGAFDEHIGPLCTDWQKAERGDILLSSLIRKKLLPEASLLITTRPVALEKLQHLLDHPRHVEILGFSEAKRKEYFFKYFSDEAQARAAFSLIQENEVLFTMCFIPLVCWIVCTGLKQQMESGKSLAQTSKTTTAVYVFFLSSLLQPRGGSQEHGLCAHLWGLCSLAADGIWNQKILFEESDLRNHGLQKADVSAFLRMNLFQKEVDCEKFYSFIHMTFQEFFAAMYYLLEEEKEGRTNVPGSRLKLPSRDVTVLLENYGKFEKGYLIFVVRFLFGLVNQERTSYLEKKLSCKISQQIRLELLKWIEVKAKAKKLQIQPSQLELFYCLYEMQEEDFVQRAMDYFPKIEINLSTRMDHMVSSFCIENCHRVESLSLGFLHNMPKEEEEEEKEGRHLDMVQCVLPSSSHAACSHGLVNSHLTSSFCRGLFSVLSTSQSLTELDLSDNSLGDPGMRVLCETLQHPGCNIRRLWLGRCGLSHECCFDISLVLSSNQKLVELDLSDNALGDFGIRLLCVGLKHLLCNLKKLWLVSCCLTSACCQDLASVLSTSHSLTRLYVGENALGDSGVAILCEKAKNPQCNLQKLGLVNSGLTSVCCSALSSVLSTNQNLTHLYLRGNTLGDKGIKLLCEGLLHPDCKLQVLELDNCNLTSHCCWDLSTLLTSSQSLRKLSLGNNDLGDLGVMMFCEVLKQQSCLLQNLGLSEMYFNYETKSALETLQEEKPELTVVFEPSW
Sequence of NLRP3 inflammasome (Mus musculus, UniProt Q8R4B8) (Q8R4B8 whole entry): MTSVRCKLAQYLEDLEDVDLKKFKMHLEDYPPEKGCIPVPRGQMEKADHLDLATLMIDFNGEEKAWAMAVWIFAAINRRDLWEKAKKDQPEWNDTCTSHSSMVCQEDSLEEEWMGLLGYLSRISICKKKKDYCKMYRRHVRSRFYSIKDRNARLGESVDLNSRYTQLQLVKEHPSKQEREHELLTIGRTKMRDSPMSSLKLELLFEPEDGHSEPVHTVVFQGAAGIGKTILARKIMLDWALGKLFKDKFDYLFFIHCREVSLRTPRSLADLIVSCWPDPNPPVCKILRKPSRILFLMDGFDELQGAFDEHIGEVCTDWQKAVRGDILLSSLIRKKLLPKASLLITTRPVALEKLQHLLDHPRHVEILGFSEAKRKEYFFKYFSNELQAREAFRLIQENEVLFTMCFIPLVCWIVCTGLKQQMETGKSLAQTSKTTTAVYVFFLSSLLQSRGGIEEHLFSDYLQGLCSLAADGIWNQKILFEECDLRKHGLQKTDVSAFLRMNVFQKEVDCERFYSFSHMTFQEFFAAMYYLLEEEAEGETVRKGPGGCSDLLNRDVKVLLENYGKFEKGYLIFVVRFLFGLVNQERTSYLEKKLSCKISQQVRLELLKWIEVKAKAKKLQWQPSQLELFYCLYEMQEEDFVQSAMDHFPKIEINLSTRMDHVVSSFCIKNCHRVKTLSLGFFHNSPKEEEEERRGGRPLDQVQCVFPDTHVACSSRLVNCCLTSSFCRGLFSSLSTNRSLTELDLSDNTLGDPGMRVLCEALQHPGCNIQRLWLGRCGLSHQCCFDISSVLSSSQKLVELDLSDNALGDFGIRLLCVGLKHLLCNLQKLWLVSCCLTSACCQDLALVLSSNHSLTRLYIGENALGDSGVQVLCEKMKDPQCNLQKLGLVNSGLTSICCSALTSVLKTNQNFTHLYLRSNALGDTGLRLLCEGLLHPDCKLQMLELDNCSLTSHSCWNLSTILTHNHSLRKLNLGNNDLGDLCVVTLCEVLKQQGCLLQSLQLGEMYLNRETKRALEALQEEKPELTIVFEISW
T1 sequence (D4A523 whole entry): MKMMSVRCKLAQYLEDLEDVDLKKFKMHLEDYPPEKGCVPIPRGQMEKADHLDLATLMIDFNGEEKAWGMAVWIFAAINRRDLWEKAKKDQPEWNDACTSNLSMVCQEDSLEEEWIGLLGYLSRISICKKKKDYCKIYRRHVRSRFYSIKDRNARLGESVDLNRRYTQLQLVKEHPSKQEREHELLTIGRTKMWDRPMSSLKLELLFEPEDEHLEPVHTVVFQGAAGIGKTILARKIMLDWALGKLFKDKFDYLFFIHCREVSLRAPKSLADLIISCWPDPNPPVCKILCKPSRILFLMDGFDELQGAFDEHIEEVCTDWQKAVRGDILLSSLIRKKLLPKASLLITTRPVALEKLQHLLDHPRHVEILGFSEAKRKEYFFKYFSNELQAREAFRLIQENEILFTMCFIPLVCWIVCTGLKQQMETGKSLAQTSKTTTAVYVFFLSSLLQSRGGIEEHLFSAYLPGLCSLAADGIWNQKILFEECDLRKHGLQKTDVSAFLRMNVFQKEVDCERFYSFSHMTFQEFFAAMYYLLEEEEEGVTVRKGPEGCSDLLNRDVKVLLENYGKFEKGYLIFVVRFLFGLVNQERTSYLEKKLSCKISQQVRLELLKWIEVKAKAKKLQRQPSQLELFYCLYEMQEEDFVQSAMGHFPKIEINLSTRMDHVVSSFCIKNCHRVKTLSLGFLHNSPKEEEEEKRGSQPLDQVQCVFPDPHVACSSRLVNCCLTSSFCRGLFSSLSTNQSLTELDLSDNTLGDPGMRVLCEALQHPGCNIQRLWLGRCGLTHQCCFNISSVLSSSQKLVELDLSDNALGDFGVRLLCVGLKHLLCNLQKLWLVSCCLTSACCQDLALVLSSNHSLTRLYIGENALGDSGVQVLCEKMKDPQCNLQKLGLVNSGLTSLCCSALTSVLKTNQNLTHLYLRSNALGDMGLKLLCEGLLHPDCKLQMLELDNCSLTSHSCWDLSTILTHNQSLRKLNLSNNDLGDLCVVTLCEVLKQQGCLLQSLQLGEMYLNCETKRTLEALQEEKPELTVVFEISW

- IC50 (TNFα production; read-out: Geo Av IC50, TNFα): > 1000 nM
- IC50 (NLRP3 inflammasome [1]): 159 nM
- IC50 (NLRP3 inflammasome [2]; read-out: Geo Av IC50, IL-1α): 3 nM
- IC50 (NLRP3 inflammasome [2]; read-out: Geo Av IC50, IL-1β): 4 nM
- IC50 (NLRP3 inflammasome [2]; read-out: Geo Av IC50, IL-18): 4 nM
- IC50 (NLRP3 inflammasome [3]): 30 nM
SMILES: CO[C@@H]1COc2c(S(=O)(=O)NC(=O)Nc3c4c(cc5c3CCC5)CCC4)cnn2C1 [JT002]
- effect on TNFα production (TNFα production; JT002 concentrations up to 1 µM): no effect
